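Five compound concentrations were applied to cells in 96-well plates for 48 hours; endpoints were derived by simple linear interpolation of the resulting dose-response curve. GI50 marks 50% less growth. At the TGI there is no net growth.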
Tests used:
Experiment in all cases: NCI-60 cell line screen, 48 h
[1] = tested on: SK-MEL-28 melanoma
[2] = tested on: SF-539 CNS
[3] = tested on: NCI-H522 lung
[4] = tested on: 786-0 renal
[5] = tested on: HCT-15 colon
[6] = tested on: SNB-75 CNS
[7] = tested on: SK-MEL-5 melanoma
[8] = tested on: HS 578T breast
[9] = tested on: UACC-257 melanoma
[10] = tested on: BT-549 breast
[11] = tested on: RXF 393 renal
[12] = tested on: KM12 colon
[13] = tested on: A549 NSCLC
[14] = tested on: SF-268 CNS
[15] = tested on: OVCAR-8 ovarian
[16] = tested on: MCF7 breast
[17] = tested on: OVCAR-5 ovarian
[18] = tested on: NCI/ADR-RES ovarian
[19] = tested on: SN12C renal
[20] = tested on: NCI-H23 lung
[21] = tested on: IGROV1 ovarian
[22] = tested on: MOLT-4 leukemia
[23] = tested on: U251 CNS
[24] = tested on: HT29 colon
[25] = tested on: SR leukemia
[26] = tested on: UACC-62 melanoma
[27] = tested on: NCI-H226 lung
[28] = tested on: MALME-3M melanoma
[29] = tested on: OVCAR-4 ovarian
[30] = tested on: RPMI-8226 leukemia
[31] = tested on: K-562 leukemia
[32] = tested on: UO-31 renal
[33] = tested on: PC-3 prostate
[34] = tested on: TK-10 renal
[35] = tested on: HOP-62 NSCLC
[36] = tested on: T-47D breast
[37] = tested on: MDA-MB-468 breast
[38] = tested on: CAKI-1 renal
[39] = tested on: M14 melanoma
[40] = tested on: SNB-19 CNS
[41] = tested on: CCRF-CEM leukemia
[42] = tested on: EKVX NSCLC
[43] = tested on: NCI-H460 lung
[44] = tested on: HCT-116 colon
[45] = tested on: SF-295 CNS
[46] = tested on: HL-60(TB) leukemia
[47] = tested on: OVCAR-3 ovarian
[48] = tested on: LOX IMVI melanoma
[49] = tested on: HOP-92 NSCLC
[50] = tested on: SW-620 colon
[51] = tested on: MDA-MB-435
[52] = tested on: ACHN renal
[53] = tested on: SK-MEL-2 melanoma
[54] = tested on: MDA-MB-231 breast
[55] = tested on: COLO 205 colon
[56] = tested on: HCC-2998 colon
[57] = tested on: DU-145 prostate
[58] = tested on: A498 renal
[59] = tested on: SK-OV-3 ovarian

COc1cc2nc(SCc3ccccc3)n(-c3ccc(Cl)cc3)c(=O)c2cc1OC
GI50 [1]: 21.8 µM | TGI [1]: > 100 µM | GI50 [2]: 7.07 µM | TGI [2]: 20.1 µM | GI50 [3]: 18.9 µM | TGI [3]: 88.2 µM | GI50 [4]: 3.84 µM | TGI [4]: 15.6 µM | GI50 [5]: 19 µM | TGI [5]: > 100 µM | GI50 [6]: 2270 nM | TGI [6]: 7.86 µM | GI50 [7]: 47.9 µM | TGI [7]: > 100 µM | GI50 [8]: 6.63 µM | TGI [8]: 48.6 µM | GI50 [9]: 39.2 µM | TGI [9]: > 100 µM | GI50 [10]: 22 µM | TGI [10]: 82.4 µM | GI50 [11]: 4.99 µM | TGI [11]: 27.8 µM | GI50 [12]: > 100 µM | TGI [12]: > 100 µM | GI50 [13]: 8.69 µM | TGI [13]: 29.6 µM | GI50 [14]: 10.3 µM | TGI [14]: 44.4 µM | GI50 [15]: 17.5 µM | TGI [15]: 66.6 µM | GI50 [16]: 14.5 µM | TGI [16]: > 100 µM | GI50 [17]: 31 µM | TGI [17]: > 100 µM | GI50 [18]: 6.25 µM | TGI [18]: 22.7 µM | GI50 [19]: 11.5 µM | TGI [19]: 75.8 µM | GI50 [20]: 11.2 µM | TGI [20]: 30.7 µM | GI50 [21]: 20.8 µM | TGI [21]: 80.4 µM | GI50 [22]: 25.2 µM | TGI [22]: > 100 µM | GI50 [23]: 8.14 µM | TGI [23]: 31.8 µM | GI50 [24]: 40.4 µM | TGI [24]: > 100 µM | GI50 [25]: 16.5 µM | TGI [25]: > 100 µM | GI50 [26]: 42.8 µM | TGI [26]: > 100 µM | GI50 [27]: 3.55 µM | TGI [27]: 22.7 µM | GI50 [28]: 19.1 µM | TGI [28]: 68.5 µM | GI50 [29]: 3.54 µM | TGI [29]: 16.9 µM | GI50 [30]: 66.1 µM | TGI [30]: > 100 µM | GI50 [31]: 12 µM | TGI [31]: 35.6 µM | GI50 [32]: 13.9 µM | TGI [32]: 51.7 µM | GI50 [33]: 16.1 µM | TGI [33]: > 100 µM | GI50 [34]: 20.3 µM | TGI [34]: 44.9 µM | GI50 [35]: 4.65 µM | TGI [35]: 18.4 µM | GI50 [36]: 28.1 µM | TGI [36]: > 100 µM | GI50 [37]: 7.61 µM | TGI [37]: 45.6 µM | GI50 [38]: 3.34 µM | TGI [38]: 13.7 µM | GI50 [39]: 42.7 µM | TGI [39]: > 100 µM | GI50 [40]: 12.6 µM | TGI [40]: 36 µM | GI50 [41]: 38.1 µM | TGI [41]: > 100 µM | GI50 [42]: 16.6 µM | TGI [42]: 50.5 µM | GI50 [43]: 8.29 µM | TGI [43]: 33.2 µM | GI50 [44]: 5.09 µM | TGI [44]: 23.4 µM | GI50 [45]: 4.36 µM | TGI [45]: 17.8 µM | GI50 [46]: > 100 µM | TGI [46]: > 100 µM | GI50 [47]: 15.8 µM | TGI [47]: 44.5 µM | GI50 [48]: 5.77 µM | TGI [48]: 18.9 µM | GI50 [49]: 16.1 µM | TGI [49]: 49 µM | GI50 [50]: 20.1 µM | TGI [50]: > 100 µM | GI50 [51]: 64.1 µM | TGI [51]: > 100 µM | GI50 [52]: 4.69 µM | TGI [52]: 19 µM | GI50 [53]: 36.8 µM | TGI [53]: > 100 µM | GI50 [54]: 16.7 µM | TGI [54]: 79.1 µM | GI50 [55]: 29.4 µM | TGI [55]: > 100 µM | GI50 [56]: 22.5 µM | TGI [56]: > 100 µM | GI50 [57]: 22.3 µM | TGI [57]: 98.1 µM | GI50 [58]: 19.6 µM | TGI [58]: 45.2 µM | GI50 [59]: 16.6 µM | TGI [59]: 53 µM
